From ChEMBL document CHEMBL1128556, “New spiropiperidines as potent and selective non-peptide tachykinin NK2 receptor antagonists” (J Med Chem, 1995) come the findings set out here.

In test [1] the target is T1, Substance-K receptor (Rattus norvegicus, UniProt P16610).
T1 sequence (P16610 whole entry): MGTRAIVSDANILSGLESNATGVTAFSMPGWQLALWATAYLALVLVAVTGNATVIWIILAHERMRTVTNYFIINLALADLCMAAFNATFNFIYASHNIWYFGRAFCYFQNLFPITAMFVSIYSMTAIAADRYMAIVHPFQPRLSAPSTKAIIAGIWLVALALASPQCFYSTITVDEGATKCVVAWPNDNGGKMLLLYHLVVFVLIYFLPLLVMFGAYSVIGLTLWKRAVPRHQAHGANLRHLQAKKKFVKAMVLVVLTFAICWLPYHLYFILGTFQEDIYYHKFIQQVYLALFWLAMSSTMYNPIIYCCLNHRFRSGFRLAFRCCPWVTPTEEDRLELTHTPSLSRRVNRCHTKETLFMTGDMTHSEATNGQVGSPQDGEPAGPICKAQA
The test is described as follows: Binding affinity against tachykinin receptor 2 from rat colon.

Another test has as its target T2, Neuromedin-K receptor (Cavia porcellus, UniProt P30098).
T2 sequence (P30098 whole entry): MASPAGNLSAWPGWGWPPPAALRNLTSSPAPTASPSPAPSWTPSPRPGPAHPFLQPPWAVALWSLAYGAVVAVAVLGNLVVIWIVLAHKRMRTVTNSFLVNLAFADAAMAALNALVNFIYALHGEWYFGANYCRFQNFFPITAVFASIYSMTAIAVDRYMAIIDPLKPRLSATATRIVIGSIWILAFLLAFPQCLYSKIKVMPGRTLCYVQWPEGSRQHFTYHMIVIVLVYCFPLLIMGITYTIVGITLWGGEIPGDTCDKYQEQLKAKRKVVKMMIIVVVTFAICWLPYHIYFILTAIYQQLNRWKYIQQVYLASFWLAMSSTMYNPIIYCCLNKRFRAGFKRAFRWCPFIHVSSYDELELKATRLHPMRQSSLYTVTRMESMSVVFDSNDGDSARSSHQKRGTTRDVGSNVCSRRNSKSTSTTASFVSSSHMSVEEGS
The test is described as follows: The compound was tested for binding affinity against Tachykinin receptor 3 from guinea pig cerebral cortex. The format is tissue-based.

Test [2] addresses T3, Substance-K receptor (Cavia porcellus, UniProt Q64077).
T3 sequence (Q64077 whole entry): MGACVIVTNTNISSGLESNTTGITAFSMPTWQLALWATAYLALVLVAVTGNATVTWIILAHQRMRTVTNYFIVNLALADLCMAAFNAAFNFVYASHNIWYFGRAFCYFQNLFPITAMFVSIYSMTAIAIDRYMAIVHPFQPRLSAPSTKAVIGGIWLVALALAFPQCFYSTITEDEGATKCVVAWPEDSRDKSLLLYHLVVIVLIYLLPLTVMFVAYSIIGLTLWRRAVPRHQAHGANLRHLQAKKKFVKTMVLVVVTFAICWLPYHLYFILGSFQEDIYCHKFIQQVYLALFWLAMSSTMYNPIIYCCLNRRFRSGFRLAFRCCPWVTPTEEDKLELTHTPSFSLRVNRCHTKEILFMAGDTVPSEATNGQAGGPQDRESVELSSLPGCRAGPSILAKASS
Description: The compound was tested for binding affinity against Tachykinin receptor 2 from guinea pig trachea.

The target in another test is Substance-P receptor (Cavia porcellus, UniProt P30547). Description: The compound was tested for binding affinity against Tachykinin receptor 1 from guinea pig trachea.
In test [3] the target is T4, Substance-K receptor (Homo sapiens, UniProt P21452).
T4 sequence (P21452 whole entry): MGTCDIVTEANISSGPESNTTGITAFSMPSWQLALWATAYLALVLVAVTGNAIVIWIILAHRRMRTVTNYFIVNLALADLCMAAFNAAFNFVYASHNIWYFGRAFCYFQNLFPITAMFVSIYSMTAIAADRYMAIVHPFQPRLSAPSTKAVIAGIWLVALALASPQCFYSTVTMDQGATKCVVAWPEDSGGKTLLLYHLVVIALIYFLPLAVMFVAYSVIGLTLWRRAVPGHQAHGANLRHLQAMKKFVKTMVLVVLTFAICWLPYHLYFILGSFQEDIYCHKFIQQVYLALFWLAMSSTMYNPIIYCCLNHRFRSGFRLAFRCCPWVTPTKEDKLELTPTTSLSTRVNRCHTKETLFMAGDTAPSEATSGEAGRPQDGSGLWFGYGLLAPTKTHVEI
Description: The compound was tested for binding affinity against Tachykinin receptor 2 from human expressed in CHO cells. The format is cell-based.

Sequence of Substance-P receptor (P30547 whole entry): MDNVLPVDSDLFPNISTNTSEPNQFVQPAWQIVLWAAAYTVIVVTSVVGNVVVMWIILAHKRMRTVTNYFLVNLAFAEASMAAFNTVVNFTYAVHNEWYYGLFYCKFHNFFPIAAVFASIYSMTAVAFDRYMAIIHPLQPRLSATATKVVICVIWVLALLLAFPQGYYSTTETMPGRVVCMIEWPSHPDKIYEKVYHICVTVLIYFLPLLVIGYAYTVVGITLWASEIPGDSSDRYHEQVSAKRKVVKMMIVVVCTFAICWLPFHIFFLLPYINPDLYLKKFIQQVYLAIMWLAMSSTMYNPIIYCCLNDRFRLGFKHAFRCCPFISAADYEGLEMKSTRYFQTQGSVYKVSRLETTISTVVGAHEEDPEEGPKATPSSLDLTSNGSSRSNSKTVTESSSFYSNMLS

A word on the Ki: it is the equilibrium dissociation constant of an inhibitor or competing ligand from its target. On Substance-K receptor [1], `O=C1OC2(CCN(CCc3c[nH]c4ccc(F)cc34)CC2)CN1Cc1ccc(F)cc1F` showed an inhibitory constant (Ki) of 6.31 nM. Same read-out and setting: next, `O=C1OC2(CCN(CCc3c[nH]c4ccc(F)cc34)CC2)CN1Cc1ccc(F)cc1`: 3.98 nM; `O=C1OC2(CCN(CCc3c[nH]c4ccc(F)cc34)CC2)CN1C(c1ccccc1)c1ccccc1`: 20 nM; `COc1ccc(CN2CC3(CCN(CCc4c[nH]c5ccc(F)cc45)CC3)OC2=O)cc1`: 3.98 nM. With `O=C1OC2(CCN(CCc3c[nH]c4ccc(F)cc34)CC2)CN1Cc1ccccc1`, the Ki at Neuromedin-K receptor was 79400 nM; on Substance-K receptor [1] it was 1.26 nM; at Substance-K receptor [2], 2.51 nM; at Substance-P receptor, over 10000 nM; at Substance-K receptor [3], 7.94 nM.

Turning to `CC(c1ccccc1)N1CC2(CCN(CCc3c[nH]c4ccc(F)cc34)CC2)OC1=O` (configuration not stated), on Substance-K receptor [1], the affinity, expressed as Ki, was 20 nM. `O=C1OC2(CCN(CCc3c[nH]c4ccc(F)cc34)CC2)CN1C(=O)c1ccccc1` showed a Ki on Substance-K receptor [1] of 2.51 nM. On the same count and under the same terms, then `Cc1ccccc1CN1CC2(CCN(CCc3c[nH]c4ccc(F)cc34)CC2)OC1=O`, with 12.6 nM; and `CC(=O)N(Cc1ccccc1)CC1(O)CCN(CCc2c[nH]c3ccc(F)cc23)CC1`, with 1.58 nM.

`O=C1OC2(CCN(CCc3c[nH]c4ccc(F)cc34)CC2)CN1Cc1cccc(F)c1` gave a Ki at Substance-K receptor [1] of 1.58 nM. As to `Cc1ccc(S(=O)(=O)N2CC3(CCN(CCc4c[nH]c5ccc(F)cc45)CC3)OC2=O)cc1`, at Substance-K receptor [1], the affinity corresponds to a Ki of 5.01 nM.

The compound `Cc1ccc(CN2CC3(CCN(CCc4c[nH]c5ccc(F)cc45)CC3)OC2=O)cc1` had an inhibition constant (Ki) at Substance-K receptor [1] of 1 nM. Still for that read-out and setting: next, `O=C1OC2(CCN(CCc3c[nH]c4ccc(F)cc34)CC2)CN1Cc1cccnc1`: 200 nM. On Substance-K receptor [1], `Fc1ccc2[nH]cc(CCN3CCC4(CC3)CCN(Cc3ccccc3)C4)c2c1` had a Ki of 6.31 nM. On the same count and under the same terms, then `O=C1OC2(CCN(CCc3c[nH]c4ccc(F)cc34)CC2)CN1Cc1ccc(Cl)cc1`, with 10 nM.

For the compound `COC(=O)c1cccc(CN2CC3(CCN(CCc4c[nH]c5ccc(F)cc45)CC3)OC2=O)c1`, affinity on Substance-K receptor [1] was put at a Ki of 79.4 nM. On Substance-K receptor [1], `O=C1OC2(CCN(CCc3c[nH]c4ccc(F)cc34)CC2)CN1Cc1ccc2ccccc2c1` had a Ki of 20 nM. The same measure, in the same setting: then `O=C1NC2(CCN(CCc3c[nH]c4ccc(F)cc34)CC2)CN1Cc1ccccc1`, with 1.26 nM; and `O=C1OC2(CCN(CCc3c[nH]c4ccc(F)cc34)CC2)CN1Cc1cccc2ccccc12`, with 7.94 nM; and `O=C1OC2(CCN(CCc3c[nH]c4ccc(F)cc34)CC2)CN1Cc1ccncc1`, with 100 nM.

At Substance-K receptor [1], `CN1CC2(CCN(CCc3c[nH]c4ccc(F)cc34)CC2)OC1=O` gave an inhibition constant (Ki) of 1580 nM. The same measure, in the same setting: next, `N#Cc1ccc(CN2CC3(CCN(CCc4c[nH]c5ccc(F)cc45)CC3)OC2=O)cc1`: 100 nM; `O=C1OC2(CCN(CCc3c[nH]c4ccc(F)cc34)CC2)CN1CCc1ccccc1`: 10 nM; `O=C1CC2(CCN(CCc3c[nH]c4ccc(F)cc34)CC2)CN1Cc1ccccc1`: 1.26 nM. `O=C1OC2(CCN(CCc3c[nH]c4ccc(F)cc34)CC2)CN1Cc1ccccn1`: on Substance-K receptor [1], the Ki is 15.8 nM.

For the compound `O=C1NC2(CCN(CCc3c[nH]c4ccc(F)cc34)CC2)C(=O)N1Cc1ccccc1`, the Ki on Substance-K receptor [1] was 126 nM. The same measure, in the same setting: then `OC1(CNCc2ccccc2)CCN(CCc2c[nH]c3ccc(F)cc23)CC1`, with 100 nM; and `O=C1CC2(CCN(CCc3c[nH]c4ccc(F)cc34)CC2)NN1Cc1ccccc1`, with 10 nM.
